Consider 16 compounds from patent US20240368191A1, “HETEROCYCLIC COMPOUNDS AND USES THEREOF” (Kumquat Biosciences Inc., priority 2021, published 2024).

The nature of one series: in vitro. The conditions noted are these: microsomes, pH 7.4.
For series [1], the target named is T1, KRAS G12S 1-169 (His-tagged, GDP-loaded) (Homo sapiens, UniProt P01116, G12S).
T1 construct: His -tagged GDP-loaded G12S 1-169; made in house; host or cells: E. coli, e.g. BL21 (DE3)
Briefly: Covalent modification of KRAS protein by intact-protein LC-MS. Format: binding. The gist of the method: (§1)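 Percent modification is derived from deconvoluted intact-protein LC-ESI-MS peak intensities of adducted versus unmodified KRAS. GDP-loaded His-tagged KRAS 1-169 (~2 μM, HEPES buffer at physiological conditions) was exposed to compound for 24 hrs at room temperature, then quenched with formic acid before C4 reversed-phase separation.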

For series [2], the target named is T2, KRAS G12D 1-169 (His-tagged, GDP-loaded) (Homo sapiens, UniProt P01116, G12D).
T2 construct: His -tagged GDP-loaded G12D 1-169; made in house; host or cells: E. coli, e.g. BL21 (DE3)
The description is as above. The conditions noted are these: comparable or same conditions as K-Ras G12S. Format: binding. The gist of the method: as §1

One may read the half-life as the time in which the quantity being followed falls by half. Higher therefore signals slow decline.

The structures appear in SMILES notation. A value given as a limit tells only on which side of the number the result lay.

T1 sequence (P01116 1-169 isoform P01116-2 G12S): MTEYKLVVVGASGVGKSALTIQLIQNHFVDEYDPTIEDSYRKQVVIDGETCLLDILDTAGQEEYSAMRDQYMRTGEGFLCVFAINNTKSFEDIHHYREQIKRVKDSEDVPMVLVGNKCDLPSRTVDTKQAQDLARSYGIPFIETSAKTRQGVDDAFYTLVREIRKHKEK
T2 sequence (P01116 1-169 isoform P01116-2 G12D): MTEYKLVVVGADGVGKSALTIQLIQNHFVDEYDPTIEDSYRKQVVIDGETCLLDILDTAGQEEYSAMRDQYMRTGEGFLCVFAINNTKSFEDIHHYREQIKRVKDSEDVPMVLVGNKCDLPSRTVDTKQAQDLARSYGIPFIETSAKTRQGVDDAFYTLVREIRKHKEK
Procedure for in vitro: The metabolic stability of a test compound is assayed at 37° C. using pooled liver microsomes (mouse or human liver microsomes). An aliquot of 10 μL of 50 μM test compound is mixed with 490 μL of 0.611 mg/mL liver microsomes, then 50 μL of the mixtures are dispensed to the 96 well tubes and warmed at 37° C. for 10 minutes. The reactions are initiated by adding 50 μL of the pre-warmed NADPH regeneration system solution (add 1.2 μL solution, 240 μl solution B, mix with 10.56 ml KPBS) and then incubated at 37° C. The final incubation solution contains 100 mM potassium phosphate (pH 7.4), 1.3 mM NADP+, 3.3 mM glucose 6-phosphate, 0.4 Unit/mL of glucose 6-phosphate dehydrogenase, 3.3 mM magnesium chloride, 0.3 mg/mL liver microsomes and 0.5 μM test article. After 0, 15, 30 and 60 minutes in a shaking incubator, the reactions are terminated by adding 100 μL of acetonitrile containing 200 nM buspirone as an internal standard. All incubations are conducted in duplicate. […] Samples are then centrifuged at 3500 rpm for 10 minutes (4° C.) using Sorvall Legend XRT Centrifuge (Thermo Scientific, GE). Supernatants (40 μL) are transferred into clean 96-deep well plates. Each well is added with 160 μL of ultrapure water (Milli-Q, Millipore Corporation) with 0.1% (v/v) formic acid (Fisher Chemical), mixed thoroughly and subjected to LC/MS/MS analysis in MRM positive ionization mode.
All the samples are measured using a mass spectrometer (QTrap 5500 quadrupole/ion trap) coupled with a Shimadzu HPLC system. The HPLC system consisted of a Shimadzu series degasser, binary quaternary gradient pumps, column heater coupled to an autosampler, and a Phenomenex Gemini-NX, C18, 3.0 μm or Phenomenex Lunar, C8, 5.0 μM HPLC column (Phenomenex, Torrance, CA), and eluted with a mobile phase gradient consisting of Solution A (0.1% formic acid water) and Solution B (0.1% formic acid acetonitrile). The column temperature is maintained at 40° C. All the analytes are detected with positive-mode electrospray ionization (ES+).
The half-life for the metabolic degradation of the test compound is calculated by plotting the time-course disappearance of the test compound during the incubation with liver microsomes. Each plot is fitted to a first-order equation for the elimination of the test compound (% remaining compound) versus time using non-linear regression (Equation 1).
where Ct is the mean relative substrate concentration at time t and C0 is the initial concentration (0.5 μM) at time 0. Note that the area ratio of the substrate peak to an internal standard peak is proportional to the analyte concentration and is used for regression analysis to derive a value of k.

`N#Cc1c(N)sc2c(F)ccc(-c3c(Cl)cc4c(N5CC6CCC(C5)N6C(=O)n5cc(C(F)(F)F)cn5)nc(OC[C@@]56CCCN5C[C@H](F)C6)nc4c3F)c12` [Compound A122, 2-amino-4-(6-chloro-8-fluoro-2-(((2R,7aS)-2-fluorotetrahydro-1H-pyrrolizin-7a(5H)-yl)meth-oxy)-4-(8-(4-(trifluoromethyl)-1H-pyrazole-1-carbonyl)-3,8-diazabicyclo[3.2.1]octan-3-yl)-quinazolin-7-yl)-7-fluorobenzo-[b]thiophene-3-carbonitrile]: the half-life at 0.5 μM in the series “in vitro” was above 10 min.

Consider `N#Cc1cn(C(=O)N2C3CCC2CN(c2nc(OC[C@@]45CCCN4C[C@H](F)C5)nc4c(F)c(-c5ccc(F)c6sc(N)nc56)c(Cl)cc24)C3)cn1` [Compound A123, 1-(3-(7-(2-amino-7-fluorobenzo-[d]thiazol-4-yl)-6-chloro-8-fluoro-2-(((2R,7aS)-2-fluoro-tetrahydro-1H-pyrrolizin-7a(5H)-yl)methoxy)quinazolin-4-yl)-3,8-diazabicyclo[3.2.1]-octane-8-carbonyl)-1H-imid-azole-4-carbonitrile], for which, in series [1] (24-hour treatment), the “K-Ras12S engagement after 24-hour treatment” value was “++ (++: indicates between 1% to 20% labelling)”. Also, the “% G12S Modification at 24 hr.” value in series [1] (KRAS G12S, 24 hr) is on record as “++ (++ indicates between about 1%-20% labelling)”.

In the case of `C#Cc1c(F)ccc2cc(O)cc(-c3ncc4c(N5CC6CCC(C5)N6C(=O)Nc5ncccn5)nc(OC[C@@]56CCCN5C[C@H](F)C6)nc4c3F)c12` [Compound A131, 3-(7-(8-ethynyl-7-fluoro-3-hydroxynaphthalen-1-yl)-8-fluoro-2-(((2R,7aS)-2-fluoro-tetrahydro-1H-pyrrolizin-7a(5H)-yl)methoxy)pyrido[4,3-d]pyrimidin-4-yl)-N-(pyrimidin-2-yl)-3,8-diazabicyclo[3.2.1]-octane-8-carboxamide], the half-life at 0.5 μM in “in vitro” was above 10 min.

As to `C#Cc1c(F)ccc2cc(O)cc(-c3ncc4c(N5CC6CCC(C5)N6C(=O)n5cc(C#N)cn5)nc(OC[C@@]56CCCN5C[C@H](F)C6)nc4c3F)c12` [Compound A143, 1-(3-(7-(8-ethynyl-7-fluoro-3-hydroxynaphthalen-1-yl)-8-fluoro-2-(((2R,7aS)-2-fluoro-tetrahydro-1H-pyrrolizin-7a(5H)-yl)methoxy)pyrido[4,3-d]pyrimidin-4-yl)-3,8-diaza-bicyclo[3.2.1]octane-8-carbon-yl)-1H-pyrazole-4-carbonitrile], the half-life at 0.5 μM in “in vitro” is above 10 min.

`C#Cc1c(F)ccc2cc(O)cc(-c3ncc4c(N5CC6CCC(C5)N6C(=O)n5ccnc5)nc(OC[C@@]56CCCN5C[C@H](F)C6)nc4c3F)c12` [Compound A163, (3-(7-(8-ethynyl-7-fluoro-3-hydroxynaphthalen-1-yl)-8-fluoro-2-(((2R,7aS)-2-fluoro-tetrahydro-1H-pyrrolizin-7a(5H)-yl)methoxy)pyrido[4,3-d]pyrimidin-4-yl)-3,8-diaza-bicyclo[3.2.1]octan-8-yl)(1H-imidazol-1-yl)methanone] returned a half-life at 0.5 μM in “in vitro” above 10 min.

As to `N#Cc1c(N)sc2c(F)ccc(-c3ncc4c(N5CC6CCC(C5)N6C(=O)n5ccnc5C#N)nc(OC[C@@]56CCCN5C[C@H](F)C6)nc4c3F)c12` [Compound A165, 1-(3-(7-(2-amino-3-cyano-7-fluorobenzo[b]thiophen-4-yl)-8-fluoro-2-(((2R,7aS)-2-fluoro-tetrahydro-1H-pyrrolizin-7a(5H)-yl)methoxy)pyrido[4,3-d]pyrimidin-4-yl)-3,8-diaza-bicyclo[3.2.1]octane-8-carbon-yl)-1H-imidazole-2-carbonitrile], the half-life at 0.5 μM in “in vitro” was above 10 min. Besides, in series [2], the “covalent labeling of K-Ras G12D” value is recorded as “essentially no detectable labeling”.

On to `N#Cc1c(N)sc2c(F)ccc(-c3ncc4c(N5CC6CCC(C5)N6C(=O)n5cncn5)nc(OC[C@@]56CCCN5C[C@H](F)C6)nc4c3F)c12` [Compound A206, 4-(4-(8-(1H-1,2,4-triazole-1-carbonyl)-3,8-diazabicyclo-[3.2.1]octan-3-yl)-8-fluoro-2-(((2R,7aS)-2-fluorotetrahydro-1H-pyrrolizin-7a(5H)-yl)meth-oxy)pyrido[4,3-d]pyrimidin-7-yl)-2-amino-7-fluorobenzo[b]-thiophene-3-carbonitrile], for which the half-life at 0.5 μM in the series “in vitro” was above 10 min.

With `N#Cc1c(N)sc2c(F)ccc(-c3c(Cl)cc4c(N5CC6CCC(C5)N6C(=O)Nc5ncccn5)nc(OC[C@@]56CCCN5C[C@H](F)C6)nc4c3F)c12` [Compound A215, 3-(7-(2-amino-3-cyano-7-fluorobenzo[b]thiophen-4-yl)-6-chloro-8-fluoro-2-(((2R,7aS)-2-fluorotetrahydro-1H-pyrrolizin-7a(5H)-yl)methoxy)quinazolin-4-yl)-N-(pyrimidin-2-yl)-3,8-diazabicyclo[3.2.1]octane-8-carboxamide], the half-life at 0.5 μM in the series “in vitro” is above 10 min.

The compound `N#Cc1c(N)sc2c(F)ccc(-c3c(Cl)cc4c(N5CC6CCC(C5)N6C(=O)n5ccnc5C#N)nc(OC[C@@]56CCCN5C[C@H](F)C6)nc4c3F)c12` [Compound A220, 1-(3-(7-(2-amino-3-cyano-7-fluorobenzo[b]thiophen-4-yl)-6-chloro-8-fluoro-2-(((2R,7aS)-2-fluorotetrahydro-1H-pyrrol-izin-7a(5H)-yl)methoxy)quin-azolin-4-yl)-3,8-diazabicyclo-[3.2.1]octane-8-carbonyl)-1H-imidazole-2-carbonitrile] yielded a half-life at 0.5 μM in “in vitro” above 10 min.

`N#Cc1ccn(C(=O)N2C3CCC2CN(c2nc(OC[C@@]45CCCN4C[C@H](F)C5)nc4c(F)c(-c5ccc(F)c6sc(N)c(C#N)c56)c(Cl)cc24)C3)n1` [Compound A224, 1-(3-(7-(2-amino-3-cyano-7-fluorobenzo[b]thiophen-4-yl)-6-chloro-8-fluoro-2-(((2R,7aS)-2-fluorotetrahydro-1H-pyrrolizin-7a(5H)-yl)methoxy)quinazolin-4-yl)-3,8-diazabicyclo[3.2.1]-octane-8-carbonyl)-1H-pyrazole-3-carbonitrile] displayed a half-life at 0.5 μM in “in vitro” above 10 min.

Compound `C#Cc1c(F)ccc2cc(O)cc(-c3ncc4c(N5C6COCC5CN(C(=O)n5cc(C#N)cn5)C6)nc(OC[C@@]56CCCN5C[C@H](F)C6)nc4c3F)c12` [Compound A226, 1-(9-(7-(8-ethynyl-7-fluoro-3-hydroxynaphthalen-1-yl)-8-fluoro-2-(((2R,7aS)-2-fluoro-tetrahydro-1H-pyrrolizin-7a(5H)-yl)methoxy)pyrido[4,3-d]pyrimidin-4-yl)-3-oxa-7,9-diazabicyclo[3.3.1]nonane-7-carbonyl)-1H-pyrazole-4-carbo-nitrile] gave a half-life at 0.5 μM in “in vitro” above 10 min.

`C#Cc1c(F)ccc2cc(O)cc(-c3ncc4c(N5CC6CCC(C5)N6C(=O)n5cncn5)nc(OC[C@@]56CCCN5C[C@H](F)C6)nc4c3F)c12` [Compound A234, (3-(7-(8-ethynyl-7-fluoro-3-hydroxynaphthalen-1-yl)-8-fluoro-2-(((2R,7aS)-2-fluoro-tetrahydro-1H-pyrrolizin-7a(5H)-yl)methoxy)pyrido[4,3-d]pyrimidin-4-yl)-3,8-diaza-bicyclo[3.2.1]octan-8-yl)(1H-1,2,4-triazol-1-yl)methanone]: in “in vitro”, the half-life at 0.5 μM is above 10 min.

On to `N#Cc1cnn(C(=O)N2CC3COCC(C2)N3c2nc(OC[C@@]34CCCN3C[C@H](F)C4)nc3c(F)c(-c4ccc(F)c5sc(N)c(C#N)c45)c(Cl)cc23)c1` [Compound A249, 1-(9-(7-(2-amino-3-cyano-7-fluorobenzo[b]thiophen-4-yl)-6-chloro-8-fluoro-2-(((2R,7aS)-2-fluorotetrahydro-1H-pyrrolizin-7a(5H)-yl)methoxy)quinazolin-4-yl)-3-oxa-7,9-diazabicyclo-[3.3.1]nonane-7-carbonyl)-1H-pyrazole-4-carbonitrile], for which the half-life at 0.5 μM in the series “in vitro” was above 10 min.

In turn, `N#Cc1cnn(C(=O)N2C3CCC2CN(c2nc(OC[C@@]45CCCN4C[C@H](F)C5)nc4c(F)c(-c5ccc(F)c6sc(N)nc56)c(Cl)cc24)C3)c1` [Compound A253, 1-(3-(7-(2-amino-7-fluorobenzo-[d]thiazol-4-yl)-6-chloro-8-fluoro-2-(((2R,7aS)-2-fluoro-tetrahydro-1H-pyrrolizin-7a(5H)-yl)methoxy)quinazolin-4-yl)-3,8-diazabicyclo[3.2.1]-octane-8-carbonyl)-1H-pyrazole-4-carbonitrile] registered a half-life at 0.5 μM in “in vitro” above 10 min.

For `N#Cc1c(N)sc2c(F)ccc(-c3c(Cl)cc4c(N5CC6CCC(C5)N6C(=O)n5cncn5)nc(OC[C@@]56CCCN5C[C@H](F)C6)nc4c3F)c12` [Compound A260, 4-(4-(8-(1H-1,2,4-triazole-1-carbonyl)-3,8-diazabicyclo-[3.2.1]octan-3-yl)-6-chloro-8-fluoro-2-(((2R,7aS)-2-fluoro-tetrahydro-1H-pyrrolizin-7a(5H)-yl)methoxy)quinazolin-7-yl)-2-amino-7-fluorobenzo-[b]thiophene-3-carbonitrile], the half-life at 0.5 μM in the series “in vitro” was above 10 min.

With `C#Cc1c(F)ccc2cc(O)cc(-c3ccc4c(N5CC6CCC(C5)N6C(=O)n5cncn5)nc(OC[C@@]56CCCN5C[C@H](F)C6)nc4c3F)c12` [Compound A281, (3-(7-(8-ethynyl-7-fluoro-3-hydroxynaphthalen-1-yl)-8-fluoro-2-(((2R,7aS)-2-fluoro-tetrahydro-1H-pyrrolizin-7a(5H)-yl)methoxy)quinazolin-4-yl)-3,8-diazabicyclo[3.2.1]-octan-8-yl)(1H-1,2,4-triazol-1-yl)methanone], in “in vitro”, the half-life at 0.5 μM was above 10 min.
